Test results reported in patent US9994905B2, “Methods for the diagnosis and treatment of pulmonary fibrosis in subjects with hermansky pudlak syndrome” (BROWN UNIVERSITY, priority 2014, dated 2018).
Like-named read-outs stand apart in the source and are kept apart here.

Tests used:
CRTH2 = CRTH2 (Mus musculus, UniProt Q9Z2J6); conditions: intratracheal bleomycin, 30 mg/kg IP every other day, Day 5 to Day 14; for bleomycin-induced collagen accumulation: Sircol on Day 14 (FIG. 6D)
Experimental: Sex-matched, 8-wk-old wild-type (WT), pale ear, CHI3L1^−/−, and CHI3L1Tgmice (≥5 mice/group) were exposed to a single bleomycin injection (1.25 U/kg; Teva Parenteral Medicines, Irvine, Calif.) via intratracheal administration. Mice were sacrificed and evaluated at Day 7 and Day 14 to examine apoptosis and fibrosis, respectively.
Animals were anesthetized, median sternotomy was performed, and right heart perfusion completed with calcium and magnesium-free PBS. The heart and lungs were then removed. The right lung was frozen in liquid nitrogen and stored at −80° C. until used. Collagen content was determined by quantifying total soluble collagen using the Sircol Collagen Assay kit (Biocolor, Accurate Chemical & Scientific Co., Westbury, N.Y.) according to the manufacturer's instructions.
Sex-matched, 8-wk-old wild-type (WT), pale ear, and CHI3L1 Tg mice (≥5 mice/group) were exposed to a single bleomycin injection (1.25 U/kg; Teva Parenteral Medicines, Irvine, Calif.) via intratracheal administration. Mice were treated with 30 mg/kg CAY10471 (Cayman Chemical) (IP, every other day) or DMSO control from Day 5 to Day 14.

[1] = tested on: Primary Type II alveolar epithelial cells; test: Bleomycin-induced apoptosis (TUNEL) in primary Type II alveolar epithelial cells; format: cell-based, mouse; conditions: 500 ng/ml pre-treatment, 100 μg/ml bleomycin (FIG. 5A)
Experimental: End labeling of exposed 3′-OH ends of DNA fragments in paraffin-embedded tissue was undertaken with the TUNEL in situ cell death detection kit AP (Roche Diagnostics). SPC co-staining was performed using a goat anti-mouse SPC primary antibody (Santa Cruz) and Alexa Fluor 594 secondary antibody. After staining, 8-10 random pictures were obtained from each lung, and a minimum of 300 cells were visually evaluated in each section. The labeled cells were expressed as a percentage of total nuclei.
WT and pale ear mouse lungs were digested with collagenase and DNase I. The resulting suspension was filtered through Falcon cell strainers, and the cells were negatively selected with anti-CD16/CD32 antibodies. Cells were maintained in BEGM+5% charcoal-stripped FBS and 10 ng/ml KGF. A549 cells were obtained from the American Type Culture Collection (ATCC, Manassas, Va.) and maintained in DMEM+2 mM glutamine+10% FBS. Primary Type II Cells were pre-treated with 500 ng/ml recombinant CHI3L1, transfected with IL-13Rα2 construct, and stimulated with 100 μg/ml bleomycin. In A549 cells, HPS1, HPS4, Rab32, and Rab38 siRNA were co-transfected with IL-13Rα2 construct, and stimulated with 100 μg/ml bleomycin. Cells were cytospun onto slides. Immunofluorescence and/or TUNEL staining were performed as previously described.

Chain of CRTH2 (Q9Z2J6 whole entry): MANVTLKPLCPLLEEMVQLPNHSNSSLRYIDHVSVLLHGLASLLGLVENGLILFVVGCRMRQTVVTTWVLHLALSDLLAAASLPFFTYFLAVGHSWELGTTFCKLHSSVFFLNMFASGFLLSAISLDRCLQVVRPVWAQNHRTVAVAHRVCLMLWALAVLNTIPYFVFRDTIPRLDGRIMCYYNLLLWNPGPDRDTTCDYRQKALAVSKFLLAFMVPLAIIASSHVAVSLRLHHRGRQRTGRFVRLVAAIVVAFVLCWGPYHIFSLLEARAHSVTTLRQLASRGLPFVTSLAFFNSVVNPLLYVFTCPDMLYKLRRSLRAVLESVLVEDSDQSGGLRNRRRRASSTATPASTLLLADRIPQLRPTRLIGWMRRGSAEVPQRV

Row | Molecule | exaggerated fibrosis caused by CHI3L1 transgene activation during fibroproliferative repair (CRTH2; CHI3L1 Tg mice, Sircol on Day 14 (FIG. 6E)) | bleomycin-induced collagen accumulation (CRTH2; HPS1 null (pale ear) mice) | bleomycin-induced collagen accumulation (CRTH2; WT mice) | bleomycin-induced apoptosis (TUNEL-positive cells) ([1]; cells from WT mice) | bleomycin-induced apoptosis (TUNEL-positive cells) ([1]; cells from pale ear mice)
1 | CN(C1CCc2c(c3ccccc3n2CC(=O)O)C1)S(=O)(=O)c1ccc(F)cc1 (centres unmarked) [CAY10471] | abrogated | decreased | decreased | – | –
2 | Recombinant CHI3L1: recombinant chitinase 3-like-1 protein | – | – | – | powerful inhibitor | did not decrease
